According to patent US8889878B2, “Haloalky-substituted amides as insecticides and acaricides” (Bayer CropScience AG, priority 2009, dated 2014):

Assay: logP by HPLC on reverse-phase column (EEC Directive 79/831 Annex V.A8)
Format: physicochemical
Conditions: for chromatographic logP: reverse-phase C18 HPLC column, pH 2.7, HPLC, C18 reverse phase, 43° C., acidic range pH 2.7, calibration with alkan-2-ones
Experimental: The logP values reported in the above Tables and Preparation Examples were determined according to EEC Directive 79/831 Annex V.A8 by HPLC (High Performance Liquid Chromatography) on a reverse-phase column (C18). Temperature 43° C.

Row | chromatographic logP | Structure (SMILES) | other results
1 | 3.34 | O=C(C#Cc1ccc(C(=O)NC2CC2)c(Cl)c1)NC(c1cccc(C(F)(F)F)c1)C(F)(F)F (stereo not shown) [2-Chloro-N-cyclopropyl-4-[3-oxo-3-({2,2,2-trifluoro-1-[3-(trifluoromethyl)phenyl]ethyl}amino)prop-1-yn-1-yl]benzamide] | 
2 | 1.4 | Cc1cc(Br)ccc1C(=O)NCc1ccccn1 [4-Bromo-2-methyl-N-(pyridin-2-ylmethyl)benzamide] | 
3 | 1.56 | O=C(NCc1ccccn1)c1ccc(Br)cc1C(F)(F)F [4-Bromo-N-(pyridin-2-ylmethyl)-2-(trifluoromethyl)benzamide] | 
4 | 2.13 | O=C(NC1CC1)c1ccc(Br)cc1C(F)(F)F [4-Bromo-N-cyclopropyl-2-(trifluoromethyl)benzamide] | 
5 | 3.29 | O=C(/C=C/c1ccc(C(=O)O)c(C(F)(F)F)c1)NC(c1cccc(C(F)(F)F)c1)C(F)(F)F (stereo not shown) [4-[(1E)-3-Oxo-3-({2,2,2-trifluoro-1-[3-(trifluoromethyl)phenyl]ethyl}amino)prop-1-en-1-yl]-2-(trifluoromethyl)benzoic acid] | 
6 | 2.02 | NCc1ccc2oc(C(=O)NC(c3cccc(C(F)(F)F)c3)C(F)(F)F)cc2c1 (stereo not shown) [5-(Aminomethyl)-N-{2,2,2-trifluoro-1-[3-(trifluoromethyl)phenyl]ethyl}-1-benzofuran-2-carboxamide] | 
7 | 4.32 | CCOC(=O)c1cc2ccc(C(=O)OC(C)(C)C)cc2o1 [6-tert-Butyl 2-ethyl 1-benzofuran-2,6-dicarboxylate] | 
8 | 1.7 | NC1CCc2cc(/C=C/C(=O)NC(c3cccc(C(F)(F)F)c3)C(F)(F)F)ccc21 (stereo not shown) [(2E)-3-(1-Amino-2,3-dihydro-1H-inden-5-yl)-N-{2,2,2-trifluoro-1-[3-(trifluoromethyl)phenyl]-ethyl}acrylamide] | 
9 | 2.88 | Nc1cccc(/C=C/C(=O)NC(c2cccc(C(F)(F)F)c2)C(F)(F)F)c1 (stereo not shown) [(2E)-3-(3-Aminophenyl)-N-{2,2,2-trifluoro-1-[3-(trifluoromethyl)phenyl]ethyl}acrylamide] | 
10 | 3.81 | O=C(/C=C/c1cccc([N+](=O)[O-])c1)NC(c1cccc(C(F)(F)F)c1)C(F)(F)F (stereo not shown) [(2E)-3-(3-Nitrophenyl)-N-{2,2,2-trifluoro-1-[3-(trifluoromethyl)phenyl]ethyl}acrylamide] | 
11 | 1.14 | Cc1cc(/C=C/C(=O)O)ccc1C(=O)NC1CC1 [(2E)-3-[4-(Cyclopropylcarbamoyl)-3-methylphenyl]acrylic acid] | 
12 | 1.34 | O=C(O)/C=C/c1ccc(C(=O)NC2CC2)c(C(F)(F)F)c1 [(2E)-3-[4-(Cyclopropylcarbamoyl)-3-trifluoromethylphenyl]acrylic acid] | 
13 | 4.12 | CCOC(=O)c1cc2cc(C(=O)NC(c3cccc(C(F)(F)F)c3)C(F)(F)F)[nH]c2cc1Cl (stereo not shown) [Ethyl 6-chloro-2-({2,2,2-trifluoro-1-[3-(trifluoromethyl)phenyl]ethyl}carbamoyl)-1H-indole-5-carboxylate] | 

Second part, the compound before the results:

Row | Structure (SMILES) | chromatographic logP | other results
14 | O=C(/C=C/c1ccc(C(=O)O)c(Cl)c1)NC(c1cccc(C(F)(F)F)c1)C(F)(F)F (stereo not shown) [2-Chloro-4-[(1E)-3-oxo-3-({2,2,2-trifluoro-1-[3-(trifluoromethyl)phenyl]ethyl}amino)prop-1-en-1-yl]benzoic acid] | 3.1 | 
15 | O=C(NC1CC1)c1ccc(I)cc1Cl [2-Chloro-N-cyclopropyl-4-iodobenzamide] | 2.13 | 
16 | Cc1cc(/C=C/C(=O)NC(c2cccc(C(F)(F)F)c2)C(F)(F)F)ccc1C(=O)O (stereo not shown) [2-Methyl-4-[(1E)-3-oxo-3-({2,2,2-trifluoro-1-[3-(trifluoromethyl)phenyl]ethyl}amino)prop-1-en-1-yl]benzoic acid] | 3.14 | 
17 | O=C(Nc1ccccn1)c1ccc(Br)cc1C(F)(F)F [4-Bromo-N-(pyridin-2-yl)-2-(trifluoromethyl)benzamide] | 2.57 | 
18 | CC(C)(C)OC(=O)c1ccc2cc(C(=O)O)oc2c1 [6-(tert-Butoxycarbonyl)-1-benzofuran-2-carboxylic acid] | 2.58 | 
19 | N#Cc1cc(/C=C/C(=O)O)ccc1-n1cncn1 [(2E)-3-[3-Cyano-4-(1H-1,2,4-triazol-1-yl)phenyl]acrylic acid] | 0.97 | 
20 | NCc1ccc(/C=C/C(=O)NC(c2cccc(C(F)(F)F)c2)C(F)(F)F)cc1C(F)(F)F (stereo not shown) [(2E)-3-[4-(Aminomethyl)-3-(trifluoromethyl)phenyl]-N-{2,2,2-trifluoro-1-[3-(trifluoro-methyl)phenyl]ethyl}acrylamide] | 1.61 | 
21 | N/C(=N\O)c1ccc(/C=C/C(=O)NC(c2cccc(C(F)(F)F)c2)C(F)(F)F)cc1C(F)(F)F (stereo not shown) [(2E)-3-[4-(N′-Hydroxycarbamimidoyl)-3-(trifluoromethyl)phenyl]-N-{2,2,2-trifluoro-1-[3-(trifluoromethyl)phenyl]ethyl}acrylamide] | 2.55 | 
22 | O=C(O)/C=C/c1ccc(C(=O)NCc2ccccc2)c(C(F)(F)F)c1 [(2E)-3-[4-(Phenylmethyl)carbamoyl)-3-trifluoromethylphenyl]acrylic acid] |  | logP (pH 2.7): 2.12
23 | O=C(O)/C=C/c1ccc(C(=O)Nc2ccccn2)c(C(F)(F)F)c1 [(2E)-3-[4-(Pyridin-2-yl)carbamoyl)-3-trifluoromethylphenyl]acrylic acid] |  | logP (pH 2.7): 1.69
24 | O=C(O)/C=C/c1ccc(C(=O)NCc2ccccn2)c(C(F)(F)F)c1 [(2E)-3-[4-(Pyridin-2-ylmethyl)carbamoyl)-3-trifluoromethylphenyl]acrylic acid] |  | logP (pH 2.7): 0.91
25 | CC(C)(C)OC(=O)NCc1ccc(/C=C/C(=O)O)cc1C(F)(F)F [(2E)-3-[4-{[tert-Butoxycarbonyl)amino]methyl}-3-(trifluoromethyl)phenyl]acrylic acid] | 2.67 | 
26 | O=C(O)/C=C/c1cc(C(F)(F)F)c(C(=O)NC2CC2)cn1 [(2E)-3-[5-(Cyclopropylcarbamoyl)-4-(trifluoromethyl)pyridin-2-yl]acrylic acid] | 1.26 | 
27 | CC(C)(C)OC(=O)NC1CCc2cc(/C=C/C(=O)O)ccc21 (stereo not shown) [(2E)-3-{1-[(tert-Butoxycarbonyl)amino]-2,3-dihydro-1H-inden-5-yl}acrylic acid] | 2.47 | 
28 | CCOC(=O)c1cc(I)c(N)cc1Cl [Ethyl 4-amino-2-chloro-5-iodobenzoate] | 2.95 | 
29 | CCOC(=O)c1cc2cc(C(=O)NC(c3cccc(C(F)(F)F)c3)C(F)(F)F)n(C)c2cc1Cl (stereo not shown) [Ethyl 6-chloro-1-methyl-2-({2,2,2-trifluoro-1-[3-(trifluoromethyl)phenyl]ethyl}carbamoyl)-1H-indole-5-carboxylate] | 4.74 | 
30 | O=C(/C=C/c1ccc(NC(=O)c2cccnc2Cl)cc1)NC(c1cc(Cl)cc(Cl)c1)C(F)(F)F (stereo not shown) [Ia-2] |  | logP (HPLC-MS): HPLC-MS: logP = 3.69; mass
31 | CC(=O)Nc1ccc(/C=C/C(=O)NC(c2cccc(C(F)(F)F)c2)C(F)(F)F)cc1 (stereo not shown) [Ia-3] |  | logP (HPLC-MS): HPLC-MS: logP = 2.95; mass
32 | O=C(/C=C/c1cccc(NC(=O)C2CC2)c1)NC(c1cccc(C(F)(F)F)c1)C(F)(F)F (stereo not shown) [Ia-4] |  | logP (HPLC-MS): HPLC-MS: logP = 3.42; mass
33 | O=C(/C=C/c1ccc(NC(=O)CC(F)(F)F)cc1)NC(c1cccc(C(F)(F)F)c1)C(F)(F)F (stereo not shown) [Ia-6] |  | logP (HPLC-MS): HPLC-MS: logP = 3.43; mass
34 | O=C(/C=C/c1ccc(-n2cncn2)c([N+](=O)[O-])c1)NC(c1cccc(C(F)(F)F)c1)C(F)(F)F (stereo not shown) [Ia-9] |  | logP (HPLC-MS): HPLC-MS: logP = 3.11; mass
